The values that follow come from patent US20260258502A1, “METHODS AND REAGENTS FOR DETECTION OF CIRCULAR DNA MOLECULES IN BIOLOGICAL SAMPLES” (priority 2022, published 2026).

The subject of the series is Human TK6 cells. In words: Duplex sequencing (DS) of human TK6 cells treated with genotoxic compounds: putative DNA circle frequency and mutation frequency. In kind it is cell-based. The note with it: detected by DS, dose groups vs untreated group, proxy for clastogenicity. The procedure:
To assess whether DNA circle frequency is a proxy for clastogenicity, DS data for various genotoxic agents were re-analyzed. ENU is a well-known potent mutagen and clastogen.
Human TK6 cells were treated with different potentially genotoxic compounds. DS libraries were prepared with 500 ng of DNA input. […] FIG. 10A-10B show the frequency of putative circles, calculated as frequency=(#circles detected)/(#duplex bases sequenced).

For the compound `CCN(N=O)C(N)=O` [ENU], the “frequency of putative DNA circles per duplex base pair (#circles detected)/(#duplex bases sequenced)” value is given as “increased candidate DNA circle frequency in a dose-dependent manner, reaching statistical significance in the highest dose group”.
